From US20240148679A1, “METHODS AND COMPOSITIONS RELATED TO TREATMENT AND PREVENTION OF CANCER BY INHIBITION OF DGAT1 AND DGAT2” (Ohio State Innovation Foundation, priority 2019, published 2024) come the findings set out here.

The nature of series [1]: Toxicity in treated mice (H&E of organs, body weight). To be noted: 120 mg/kg/day; for toxic effects in mouse liver, kidney and spleen (H&E staining): 13 days. The format is in vivo. The procedure: (A) The H&E staining of the liver, kidney and spleen of mice treated with the DGAT1 inhibitor A922500 (120 mg/kg/day, oral gavage) for 13 days. Scale bar, 50 μm. (B) The body weight of mice treated with vehicle or DGAT1 inhibitor A-922500 (120 mg/kg/day, oral gavage) for 13 days. The mice with DGAT1i treatment lost 8% weight at day 13 treatment compared with the mice weight at day 1.
Paraffin tissue sections were deparaffinized in xylene and rehydrated in degraded ethanol (100%, 95% and 70% ethanol), respectively. After washing with dH2O, slides were stained with hematoxylin and eosin solution in sequence followed by washing with dH2O. Then slides were dehydrated in degraded ethanol and immersed in xylene followed by mounting in Permount.
Intracranial xenograft models were generated using female athymic nude (NCr-nu/nu) mice (6-8 weeks of age obtained from OSU Target Validation Shared Resource). U87EGFRvIII (1×10^6) cells infected with shDGAT1-, shDGAT2- or scramble shRNA-expressing lentivirus for 48 hr (suspended in 100 μl PBS) were implanted into mice flank to generate subcutaneous model. For intracranial xenograft model, U87EGFRvIII-luc (1×10^5) or GBM30-luc (1×10^5) cells infected with shDGAT1-, shDGAT2- or scramble shRNA-expressing lentivirus for 48 hours (suspended in 5 μl PBS) were implanted into mouse brains. Mice were observed until they became moribund, at which point they were sacrificed. For drug treatment, U87EGFRvIII (1×10^6 cells suspended in 100 μl PBS) or GBM30 cells (4×10^6 suspended in 100 μl PBS and then mixed with 100 μl matrigel) were implanted in mouse flanks. DGAT1 inhibitor A-922500 (120 mg/kg/day, oral gavage) was formulated by 1% Tween 80 in PBS and administrated to mice when tumor size reached approximately 80 mm^3.

A further series has as its system GBM cells. The series can be described thus: GBM cell death, trypan blue counting. The format is cell-based, human. The conditions noted are these: single inhibitor, 3 days.

Each structure is given as a SMILES string. Entries after “also recorded” stand apart in the source; their conditions may differ.

As to `O=C(Nc1ccccc1)Nc1ccc(-c2ccc(C(=O)[C@@H]3CCC[C@H]3C(=O)O)cc2)cc1` [A-922500], the mice weight decrease result in series [1] (after 13 days, in comparison with vehicle control group) is listed as “about 8%”. In series [1] (oral gavage), the “toxicity in treated mice (overall)” value was “does not induce noticeable toxic effects; also recorded: no obvious toxicity was observed”. In addition, the “toxic effects in mouse liver, kidney and spleen (H&E staining)” value is “did not observe any toxic effects” in series [1] (oral gavage) and “no obvious toxic effects” in series [1] (oral gavage, listed as A922500). In addition, the body weight loss in series [1] (oral gavage, day 13 compared with day 1) was 8%. Besides, the GBM cell death entry with GBM cells was “greatly induced marked GBM cell death”.
